In this assay the test system is fatigue mice. Put plainly: Weight loading swimming test of fatigue mice (Example 1). The class given is in vivo, ICR male mice. Particulars: for restoration of energy / strength in the state of fatigue: control group glucose 1 g/kg; for swimming time of fatigue mice: intragastric, daily dose in three times, swimming continued for three days, ribose 2.5 g/kg, caffeine 75 mg/kg, ribose 1250 mg/kg+caffeine 40 mg/kg. As to the method: The mice swim with the load twice every day, respectively in the morning and afternoon. The sum of the swimming times is recorded as the swimming time for one day. The average of the swimming times for the last two days is taken as a reference, and the mice are kept swimming every day until the day in which the swimming time is below 80% of the reference, and that is considered as fatigue. […] The respective agents are given by intragastric administration with a dosage of 0.2 ml/10 g, and the daily dose is given in three times. The mice are administrated with the agents 30 minutes before swimming in the morning and afternoon, respectively, and administrated again when the furs of the mice dry after swimming in the afternoon. The mice are continued to swim for three days under the prior condition as described in Section 1.2. After swimming, the respective agents are continually administered to the mice 3 times/day for 3 days, except those to be sampled immediately, then taken as materials. […] The swimming time for each group on day 0 is set for 1, the swimming time for each group on day 1, 2 and 3 is compared to that on day 0 respectively, and thereby the change rate (%) is obtained.

For `Cn1c(=O)c2c(ncn2C)n(C)c1=O` [caffeine], the “swimming time of fatigue mice” value is on record as “shortened with the extension of training time”. Also, the anti-fatigue effect result (fatigue mice, weight loading swimming, three days) was “does not produce sustained anti-fatigue effect”. Moreover, the “restoration of energy / strength in the state of fatigue” value (fatigue mice) is given as “restore some strength in a short time but increase fatigue with the extension of time”.
With `O=C[C@H](O)[C@H](O)[C@H](O)CO` [ribose, D-ribose], the “swimming time of fatigue mice” value is on record as “increased with the extension of training time”. Also, the “restoration of energy / strength in the state of fatigue” value (fatigue mice) is recorded as “restore energy more quickly than the control group”.

Values taken from patent publication US20180333427A1, “ANTI-FATIGUE COMPOSITION AND USE THEREOF” (CHENGZHI LIFE SCIENCE., LTD., priority 2013, published 2018).
